{"source": "patent US20260306640A1", "about": "“TECHNOLOGIES TARGETING CELL STATES” (Auron Therapeutics, Inc., priority 2023, published 2026)", "type_in_all_cases": "cell-based", "key": {"[1]": {"tested_on": "histone acetylation (e.g., AcH3K9)", "test": "Histone H3K9 acetylation (AcH3K9), Western Blot, MOLM-13 cells", "conditions": "FIG. 2", "procedure": "In some embodiments, an assessment is performed using cells. In some embodiments, cells were treated with various compounds before assessing KAT2A and/or KAT2B levels, histone (e.g., H3K9) acetylation levels, cell states, growth, etc.\nWestern Blot: In some assessments, MOLM13, NCI-H1048, LASCPC-01 and NEPC organoid cells were treated with compounds at certain concentrations for certain periods of time, and cell pellets were lysed by adding 1-part 4×laemmli Sample buffer (e.g., Bio-Rad Catalog #1610747) along with Mercaptoethanol (e.g., Bio-Rad Catalog #1610710) according to manufacturer's instructions, and 1-part RIPA buffer with 2×protease and phosphatase inhibitor. The samples were sonicated 30% amplitude, 35 seconds on and 35 seconds off for 1 cycle and boiled at 95° C. for 5 minutes. 30-35 μL of samples were loaded on a 4-15% Criterion™ TGX Stain-Free™ Protein Gel (Bio-rad, 5678084). In some assessments, NCI-H1048 flash frozen tumor pieces were resuspended in RIPA buffer and homogenized on TissueLyser II with steel beads at 30 Hz for 3 minutes. Samples were then centrifuged at […] at 4° C. for 15 minutes. BCA protein determination was performed and samples normalized for 1.95 ug/uL. 19.5 uL were loaded and run on similar gels as cell pellets. […]"}, "KAT2A [2]": {"molecular_target": "T1, KAT2A (Homo sapiens, UniProt Q92830)", "T1 sequence (Q92830 whole entry)": "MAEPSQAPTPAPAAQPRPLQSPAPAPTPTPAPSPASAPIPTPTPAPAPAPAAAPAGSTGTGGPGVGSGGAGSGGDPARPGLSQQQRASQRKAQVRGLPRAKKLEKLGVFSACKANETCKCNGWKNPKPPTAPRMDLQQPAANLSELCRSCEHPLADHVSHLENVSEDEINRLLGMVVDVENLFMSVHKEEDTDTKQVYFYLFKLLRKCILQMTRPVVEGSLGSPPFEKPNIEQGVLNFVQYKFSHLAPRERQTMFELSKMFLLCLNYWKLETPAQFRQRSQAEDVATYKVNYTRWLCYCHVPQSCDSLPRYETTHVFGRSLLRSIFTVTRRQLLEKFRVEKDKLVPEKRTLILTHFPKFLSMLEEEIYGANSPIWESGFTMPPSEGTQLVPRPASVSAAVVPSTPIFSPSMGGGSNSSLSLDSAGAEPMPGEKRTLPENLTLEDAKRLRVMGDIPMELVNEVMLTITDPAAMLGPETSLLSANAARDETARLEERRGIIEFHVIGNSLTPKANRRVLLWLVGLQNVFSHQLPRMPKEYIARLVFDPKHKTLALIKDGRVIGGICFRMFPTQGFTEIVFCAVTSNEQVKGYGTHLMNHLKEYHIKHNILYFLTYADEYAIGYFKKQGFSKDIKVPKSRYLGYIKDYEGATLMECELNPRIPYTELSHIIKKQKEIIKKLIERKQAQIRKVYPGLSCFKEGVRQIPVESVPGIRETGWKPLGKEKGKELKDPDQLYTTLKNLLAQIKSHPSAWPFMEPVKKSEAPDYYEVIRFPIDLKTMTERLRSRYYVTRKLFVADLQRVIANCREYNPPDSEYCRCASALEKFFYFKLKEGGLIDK", "test": "Western blot of KAT2A level in neuroendocrine prostate cancer LASCPC-01 cells, 24 hours", "set-up": "degrader, Western blot", "conditions": "FIG. 3 (A)", "procedure": "(§1) FIG. 3. Provided compounds can provide various activities. (A): Provided technologies can reduce KAT2A and KAT2B levels and histone acetylation levels. […] Cell viability (Cell Titer Glo) data relative to DMSO control after 7 days of treatment with compound 22 are presented as examples to confirm inhibition. GI50=5 nM. (C): Provided technologies can modulate cell states and induce differentiation. […] (D): Provided technologies can reduce KAT2A and KAT2B levels and histone acetylation levels including in neuroendocrine prostate cancer primary patient organoid. […] Concentrations are nM. […] Cell viability data relative to DMSO control after 21 days of treatment with compound 22 are presented as examples to confirm inhibition. GI50=3 nM. (F): Provided technologies can modulate cell states and induce differentiation."}, "KAT2A [3]": {"molecular_target": "T1, KAT2A", "test": "KAT2A degradation, Western Blot (Jess), MOLM-13 cells", "set-up": "degrader, Western blot", "outline": "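MOLM-13 cells in RPMI 1640/20% FBS were treated with compound for 24 h at 37 °C. RIPA lysates (4 μg) were run on a capillary Western (Jess) with anti-KAT2A antibody and chemiluminescent detection. DC50 comes from percent protein reduction versus DMSO control.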"}, "epithelial GSEA": {"tested_on": "epithelial GSEA", "test": "Epithelial GSEA in LASCPC-01 cells", "conditions": "LASCPC-01 cells as compared to DMSO; FIG. 3 (C)", "procedure": "as §1"}}, "note": "Like-named read-outs stand apart in the source and are kept apart here."}
{"smiles": "CN1C[C@H](Nc2cnn(C)c(=O)c2Br)C[C@H](c2ccc(C(=O)N3CCC(CN4CCN(c5ccc6c(c5)CN(C5CCC(=O)NC5=O)C6=O)CC4)CC3)cc2)C1", "note": "(stereo partly drawn) [Compound 22, 3-(5-(4-((1-(4-((3R,5R)-5-((5-bromo-1-methyl-6-oxo-1,6-dihydropyridazin-4-yl)amino)-1-methylpiperidin-3-yl)benzoyl)piperidin-4-yl)methyl)piperazin-1-yl)-1-oxoisoindolin-2-yl)piperidine-2,6-dione]", "values": [{"measurement": "histone acetylation (e.g., AcH3K9) levels", "setting": "[1]", "result": "reduce histone acetylation (e.g., AcH3K9) levels"}, {"measurement": "reduction of KAT2A level", "setting": "KAT2A [2]", "result": "confirm such reduction"}, {"measurement": "EC90", "setting": "KAT2A [3]; 24 h, MOLM-13, KAT2A, read-out: DC90 (the source's name)", "result": 0.6, "unit": "nM"}, {"measurement": "DC50", "setting": "KAT2A [3]; MOLM-13, KAT2A, read-out: DC50", "result": 0.11, "unit": "nM"}, {"measurement": "KAT2A levels", "setting": "KAT2A [3]; MOLM-13 cells, FIG. 2", "result": "potently reduce KAT2A and KAT2B levels"}, {"measurement": "DC50", "setting": "KAT2A [3]; MOLM-13 cells, KAT2A, 24 h, Western Blot, vs DMSO, read-out: KAT2A MOLM-13 DC50", "result": "< 1", "unit": "nM"}, {"measurement": "epithelial GSEA", "setting": "epithelial GSEA", "result": "significant upregulation"}]}
